Measurements from US20220041681A1 (MEDIMMUNE LIMITED, priority 2016, published 2022).
Like-named read-outs stand apart in the source and are kept apart here.

Experiments:
[1] = Stability testing of peptides in plasma; format: in vitro ADME, mouse; conditions: mouse, 24 h, 2 μmol/L
Protocol: (§1) Stability testing of peptides in plasma.
(§2) Stock solutions of the peptides of about 200 μmol/L was prepared by weighing solid peptide into a Eppendorf Low Bind Tube and dissolved in DMSO. 10 μL of stock solutions were added to 990 μL of plasma in an Eppendorf Low Bind Tube, resulting in initial concentrations of the peptides in plasma of about 2 μmol/L. The frozen blank plasma from human, rat and mouse had been thawed and heated to a temperature of 37° C. before addition of the stock solution. The spiked plasma samples were gently mixed and allowed to equilibrate for about 5 minutes before start of experiment. The plasma samples were incubated for 48 hours in a GalaxyR CO2 incubator at 37° C. Sampling (30 μL) was performed at 0, 1, 2, 6.5, 17, 24 and 48 hours. The samples were stored at −70° C. until analysis.
(§3) Plasma samples were assayed as follows. The 30 μL plasma samples were protein precipitated with […] of cold ethanol in a 96-well low bind plate (Eppendorf Protein LoBind). After mixing and centrifugation, 100 μl the supernatant was transferred to a new plate and 1 μl was injected onto an analytical column.
(§4) The analysis was performed using a μLC-system (LC Exigent μLC) coupled to a medium high resolution mass spectrometer (Perkin Elmer PenTOF) with positive electrospray ionisation. The analytical column was a 5 cm, 1 mm Agilent Poroshell (custom made) C18-column with a particle size of 2.7 μm. Flow: 0.1 ml/min using a slow reversed phase gradient. Mobile phases used were acetonitrile and water containing 0.1% formic acid.
The resulting data were manually evaluated for the following degradation products: +1 product (acid) and the DPP IV-cleavage product. Products with +1 mass may arise from deamidation at amide groups of glutamine or at the C-terminus. Cleavage products arise from the action of the protease DPP IV in plasma. Both the degradation of the peptides and formation of peptide products were reported in percentage of the initial peptide concentration. Peaks were integrated and % remaining peptide was calculated: (peak area/peak area 0H)*100. […]

[2] = format: in vitro ADME, human; conditions: human, 24 h, 2 μmol/L
Protocol: as §1, §2, §3, §4
The resulting data were manually evaluated for the following degradation products: +1 product (acid) and the DPP IV-cleavage product. Products with +1 mass may arise from deamidation at amide groups of glutamine or at the C-terminus. Cleavage products arise from the action of the protease DPP IV in plasma. Both the degradation of the peptides and formation of peptide products were reported in percentage of the initial peptide concentration. Peaks were integrated and % remaining peptide was calculated: (peak area/peak area 0H)*100. Levels of deamidation and DPP IV cleavage were low for G797 and G933.

[3] = test system: overweight or obese subjects with type 2 diabetes mellitus (T2DM); test: Multiple-ascending dose study Part II (Cohorts 5 and 6); format: in vivo, human; conditions: for Fasting Glucose (change) / Glucose AUG (change) / Weight (change): n = 12 active
Protocol: A randomized, double-blind, multiple-ascending dose study is performed. This study consists of 2 cohorts: cohort 5 and cohort 6.
The study consists of an inpatient up-titration evaluation period beginning on Day 3 for both Cohorts 5 and 6 and an outpatient follow-up period. The first 4 days and the final day of dosing at 300 μg are inpatient.
Subjects have a second inpatient period for the initiation of the 300 μg dose ending on the fourth day at that dose followed by at-home self administration.
Additional time points include before commencing the 300 μg dose (Day 16 for Cohort 5 and Day 11 for Cohort 6), and at the end of dosing (Day 22 for Cohort 5 and Day 17 for Cohort 6).

CCCCCCCCCCCCCCCC(=O)N[C@@H](CCC(=O)NCCCC[C@H](NC(=O)[C@H](CC(=O)O)NC(=O)[C@H](CO)NC(=O)C(NC(=O)[C@H](Cc1ccccc1)NC(=O)C(NC(=O)CNC(=O)[C@H](CCC(N)=O)NC(=O)[C@H](CO)NC(=O)[C@@H](N)Cc1cnc[nH]1)[C@@H](C)O)[C@@H](C)O)C(=O)N[C@@H](CO)C(=O)N[C@@H](CCC(=O)O)C(=O)N[C@@H](Cc1ccc(O)cc1)C(=O)N[C@@H](CC(C)C)C(=O)N[C@@H](CC(=O)O)C(=O)N[C@@H](CO)C(=O)N[C@@H](CCC(=O)O)C(=O)N[C@@H](CCCNC(=N)N)C(=O)N[C@@H](C)C(=O)N[C@@H](CCCNC(=N)N)C(=O)N[C@@H](CC(=O)O)C(=O)N[C@@H](Cc1ccccc1)C(=O)N[C@H](C(=O)N[C@@H](C)C(=O)N[C@@H](Cc1c[nH]c2ccccc12)C(=O)N[C@@H](CC(C)C)C(=O)N[C@@H](CCC(=O)O)C(=O)N[C@@H](C)C(=O)NCC(=O)NCC(=O)O)C(C)C)C(=O)O (stereo partly shown) [Peptide G933]
% stable peptide [1]: 83% | % DPP cleaved product/+1 DPP cleaved product [2]: <1% | % stable peptide [2]: 86% | Levels of deamidation and DPP IV cleavage ([2]; rat, mouse): low | glucose AUC reduction ([3]; Cohort 5 (100/150/200/300 μg, 22 days)): 41.7% | Fasting Glucose (change) ([3]; Cohort 5, 300 ug): -24.40 mg/dL | Glucose AUG (change) ([3]; Cohort 5, 300 ug): −33.7 | Weight (change) ([3]; Cohort 5, 300 ug, difference to placebo after 22 days): -2.11 kg | weight loss difference vs placebo ([3]; Cohort 5, 22 days): 2.11 kg | heart rate increase from baseline ([3]; Cohort 5, 22 days administration): approximately 7.6 BPM | weight lost ([3]; Cohort 5, after 22 days): about 3.09 kg | glucose AUC reduction ([3]; Cohort 6 (100/200/300 μg, 17 days)): 35.8% | Fasting Glucose (change) ([3]; Cohort 6, 300 ug): -36.94 mg/dL | Glucose AUG (change) ([3]; Cohort 6, 300 ug): −28.9 | Weight (change) ([3]; Cohort 6, 300 ug, difference to placebo after 17 days): -1.88 kg | patients who vomited ([3]; Cohort 6, 1 patient): 8.3% | weight loss difference vs placebo ([3]; Cohort 6, 17 days): 1.88 kg | heart rate increase from baseline ([3]; Cohort 6, 17 days administration): approximately 5.9 BPM | weight lost ([3]; Cohort 6, after 17 days): about 2.23 kg | deaths or serious adverse events ([3]; Cohorts 5 and 6): No deaths or serious adverse events were observed | rate of vomiting ([3]; Cohorts 5 and 6 together, 4/24): 16% | rate of nausea ([3]; Cohorts 5 and 6 together, 8/24): 33%
